Laboratory results reported in patent EP3603649A1 (priority 2018, dated 2020).

Tests used:
[1] = system: endothelial cells of the BBB; details: cited from earlier work
PrP^res = system: PrP^res; parameters: species or system C57BL/6 mice; details: mouse, in vivo
in vitro = details: mouse, cerebellar granule neurons
[2] = target: Hamster recombinant full length PrP (Mesocricetus auratus, UniProt P04273); format: biochemical
Chain of Hamster recombinant full length PrP (P04273 23-254 limits assumed): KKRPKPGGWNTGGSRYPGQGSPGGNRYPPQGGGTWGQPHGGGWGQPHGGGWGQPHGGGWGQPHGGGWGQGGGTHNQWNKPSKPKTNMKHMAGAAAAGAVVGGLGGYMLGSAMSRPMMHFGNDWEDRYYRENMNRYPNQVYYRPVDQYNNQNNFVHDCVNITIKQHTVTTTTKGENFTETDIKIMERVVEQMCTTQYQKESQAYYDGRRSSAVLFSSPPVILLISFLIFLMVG

Compound: trimethyl-β-cyclodextrin [TRIMEB]
- toxicity on endothelial cells of the BBB [1]: more toxic than α-cyclodextrin

Compound: COC[C@H]1O[C@@H]2O[C@H]3[C@H](O)[C@@H](OC)[C@@H](O[C@H]4[C@H](O)[C@@H](OC)[C@@H](O[C@H]5[C@H](O)[C@@H](OC)[C@@H](O[C@H]6[C@H](O)[C@@H](OC)[C@@H](O[C@H]7[C@H](O)[C@@H](OC)[C@@H](O[C@H]8[C@H](O)[C@@H](OC)[C@@H](O[C@H]1[C@H](O)[C@H]2OC)O[C@@H]8COC)O[C@@H]7COC)O[C@@H]6COC)O[C@@H]5COC)O[C@@H]4COC)O[C@@H]3COC [DIMEB, heptakis(2,6-O-dimethyl)beta-cyclodextrin]
- PrP^res accumulation in brain (difference between the groups) (PrP^res): did not show any difference
- MCC at 72 h (in vitro): > 500 µM
- concentration of maximum effect on lag phase [2]: 100 µM
- lag phase (time for the reaction to start) [2]: significantly increased
